Peptide text beside a SMILES is read from it.
Test system: HSV1
Assay type: cell-based, Human herpes simplex virus type 1
Conditions: for efficacy for reducing HSV1 infectivity (in words): Examples 2 and 3
Method: African Green Monkey Kidney (Vero) cells were maintained in Eagle's minimum essential medium with Earle's salt (EMEM) and supplemented with 10% foetal calf serum (heat-inactivated), 4 mM L-glutamine, and 1% (v/v) nonessential amino acids, plus penicillin and streptomycin (100 IU/mg and […], respectively) (maintenance medium referred to as 10% EMEM). The cells were incubated at 37° C. in a humidified atmosphere of air with 5% CO2.
On harvesting, monolayers were washed in phosphate-buffered saline (PBS), and dislodged by incubating with trypsin in PBS for 30 min, before inactivating trypsin by addition of an equal volume of 10% EMEM and centrifuging at 500 g (5 min, 4° C.). Cell pellets were resuspended in 10% EMEM, prior to cell counting and seeding of 24-well plates. For antiviral assays, medium containing only 0.5% FCS was used (referred to as 0.5% EMEM).
Three separate passages of HSV1 virus were prepared by infecting Vero cells, and preparing semi-pure suspensions of virus from tissue culture supernatant and cell lysates, before freezing aliquots of virus at −85° C. Viral infectivity was assessed by carrying out plaque assays on serial dilutions of thawed aliquots (expressed in pfu/ml).
Peptides were obtained in lyophilised form from a commercial supplier (AltaBioscience, University of Birmingham or Advanced Biomedical), and were produced at 5 micromole scale. N-terminals were protected by addition of an acetyl group, and the C-terminals were protected by addition of an amide group.
Small quantities of peptide were weighed in sterile Eppendorf tubes, before addition of sufficient 0.5% EMEM to produce a 1.5 mM stock solution, which was frozen at −20° C. in aliquots.
Vero cells were seeded at 125,000 cells per well in 10% EMEM, and were incubated overnight resulting in confluent monolayers. […] Virus stocks (p3) were thawed, and diluted in 0.5% EMEM such that there were around 100 pfu in 100 μl. Each 24-well plate was inoculated separately. Firstly 100 μl of virus stock was added to the peptide or control medium arranged on a 96-well plate. This was incubated at 37° C. for ten minutes before inoculation. Medium was removed from four wells of a 24-well plate containing confluent Vero, and the 200 μl inoculum added to the appropriate well. Once all wells were treated, the 24-well plate was incubated for a further 60-80 minutes. Finally the peptide-containing inoculum was removed, and 1 ml of 1% EMEM containing 1% carboxymethylcellulose was added to each well. Plates were incubated for a further 22 hours or in some experiments 40 hours, before removal of overlay, and addition of 10% formaldehyde in PBS. After a further one hour incubation, fixative was removed, monolayers washed several times with tap water, and stained with carbol fuchsin solubilised in water. After 30 minutes stain was removed, and plates washed several times with tap water, before being air dried. Plaques were counted using an Olympus IX70 Inverting Microscope, and antiviral effect expressed as a percentage of the control value for each peptide concentration. The IC50 was calculated from plots of inhibitory effect against peptide concentration.

Row | Molecule | IC50 [µM] | efficacy for reducing HSV1 infectivity (in words)
1 | CC(=O)N[C@@H](Cc1c[nH]c2ccccc12)C(=O)N[C@@H](CCCNC(=N)N)C(=O)N[C@@H](CCCCN)C(=O)N[C@@H](Cc1c[nH]c2ccccc12)C(=O)N[C@@H](CCCNC(=N)N)C(=O)N[C@@H](CCCCN)C(=O)N[C@@H](Cc1ccccc1)C(=O)N[C@@H](Cc1ccccc1)C(=O)N[C@@H](Cc1ccccc1)C(=O)N[C@@H](CCCNC(=N)N)C(=O)N[C@@H](CCCCN)C(=O)N[C@@H](Cc1c[nH]c2ccccc12)C(=O)N[C@@H](CCCNC(=N)N)C(=O)N[C@@H](CCCCN)C(=O)N[C@@H](CCCNC(=N)N)C(=O)N[C@@H](Cc1c[nH]c2ccccc12)C(=O)N[C@@H](Cc1c[nH]c2ccccc12)C(N)=O [MU 116] (Ac-WRKWRKFFFRKWRKRWW-NH2) | 3.3 | 
2 | CC(=O)N[C@@H](CCCNC(=N)N)C(=O)N[C@@H](CCCNC(=N)N)C(=O)N[C@@H](CCCCN)C(=O)N[C@@H](CCCNC(=N)N)C(=O)N[C@@H](CCCNC(=N)N)C(=O)N[C@@H](CCCCN)C(=O)N[C@@H](CCCNC(=N)N)C(=O)N[C@@H](CCCNC(=N)N)C(=O)N[C@@H](CCCNC(=N)N)C(=O)N[C@@H](CCCNC(=N)N)C(=O)N[C@@H](CCCNC(=N)N)C(=O)N[C@@H](CCCCN)C(=O)N[C@@H](CCCNC(=N)N)C(=O)N[C@@H](CCCNC(=N)N)C(=O)N[C@@H](CCCCN)C(=O)N[C@@H](CCCNC(=N)N)C(=O)N[C@@H](CCCNC(=N)N)C(=O)N[C@@H](CCCNC(=N)N)C(N)=O [MU 16] (Ac-RRKRRKRRRRRKRRKRRR-NH2) | 7.5 | 
3 | CC(=O)N[C@@H](Cc1c[nH]c2ccccc12)C(=O)N[C@@H](CCCNC(=N)N)C(=O)N[C@@H](CCCCN)C(=O)N[C@@H](Cc1c[nH]c2ccccc12)C(=O)N[C@@H](CCCNC(=N)N)C(=O)N[C@@H](CCCCN)C(=O)N[C@@H](CCCNC(=N)N)C(=O)N[C@@H](Cc1c[nH]c2ccccc12)C(=O)N[C@@H](Cc1c[nH]c2ccccc12)C(=O)N[C@@H](Cc1ccccc1)C(=O)N[C@@H](CCCNC(=N)N)C(=O)N[C@@H](CCCCN)C(=O)N[C@@H](Cc1ccccc1)C(=O)N[C@@H](CCCNC(=N)N)C(=O)N[C@@H](CCCCN)C(=O)N[C@@H](CCCNC(=N)N)C(=O)N[C@@H](Cc1ccccc1)C(=O)N[C@@H](Cc1ccccc1)C(N)=O [MU 117] (Ac-WRKWRKRWWFRKFRKRFF-NH2) | 3.3 | 
4 | CC(=O)N[C@@H](CC(C)C)C(=O)N[C@@H](CC(C)C)C(=O)N[C@@H](CCCNC(=N)N)C(=O)N[C@@H](CCCCN)C(=O)N[C@@H](CCCNC(=N)N)C(=O)N[C@@H](CC(C)C)C(=O)N[C@@H](CCCCN)C(=O)N[C@@H](CCCNC(=N)N)C(=O)N[C@@H](CC(C)C)C(=O)N[C@@H](CC(C)C)C(=O)N[C@@H](CC(C)C)C(=O)N[C@@H](CCCNC(=N)N)C(=O)N[C@@H](CCCCN)C(=O)N[C@@H](CCCNC(=N)N)C(=O)N[C@@H](CC(C)C)C(=O)N[C@@H](CCCCN)C(=O)N[C@@H](CCCNC(=N)N)C(=O)N[C@@H](CC(C)C)C(N)=O [MU 24] (Ac-LLRKRLKRLLLRKRLKRL-NH2) | 40 | 
5 | CC(=O)N[C@@H](CCCNC(=N)N)C(=O)N[C@@H](CC(=O)O)C(=O)N[C@@H](C)C(=O)N[C@@H](CC(=O)O)C(=O)N[C@@H](CC(=O)O)C(=O)N[C@@H](CC(C)C)C(=O)N[C@@H](CCC(N)=O)C(=O)N[C@@H](CCCCN)C(=O)N[C@@H](CCCNC(=N)N)C(=O)N[C@@H](CCCNC(=N)N)C(=O)N[C@@H](CC(=O)O)C(=O)N[C@@H](C)C(=O)N[C@@H](CC(=O)O)C(=O)N[C@@H](CC(=O)O)C(=O)N[C@@H](CC(C)C)C(=O)N[C@@H](CCC(N)=O)C(=O)N[C@@H](CCCCN)C(=O)N[C@@H](CCCNC(=N)N)C(N)=O [GIN 13, RDADDLQKR RDADDLQKR] (Ac-RDADDLQKRRDADDLQKR-NH2) | > 40 | no, or poor, efficacy
6 | ARKARKRAAARKARKRAA [GIN 39] |  | abolished antiviral activity
7 | CC(=O)N[C@@H](CCCCN)C(=O)N[C@@H](CCCNC(=N)N)C(=O)N[C@@H](CCCCN)C(=O)N[C@@H](CCCCN)C(=O)N[C@@H](CCCNC(=N)N)C(=O)N[C@@H](CCCCN)C(=O)N[C@@H](CCCNC(=N)N)C(=O)N[C@@H](CCCCN)C(=O)N[C@@H](CCCCN)C(=O)N[C@@H](CCCCN)C(=O)N[C@@H](CCCNC(=N)N)C(=O)N[C@@H](CCCCN)C(=O)N[C@@H](CCCCN)C(=O)N[C@@H](CCCNC(=N)N)C(=O)N[C@@H](CCCCN)C(=O)N[C@@H](CCCNC(=N)N)C(=O)N[C@@H](CCCCN)C(=O)N[C@@H](CCCCN)C(N)=O [MU 18] (Ac-KRKKRKRKKKRKKRKRKK-NH2) | 7.5 | 
8 | CC(=O)N[C@@H](Cc1ccccc1)C(=O)N[C@@H](CCCNC(=N)N)C(=O)N[C@@H](CCCCN)C(=O)N[C@@H](Cc1ccccc1)C(=O)N[C@@H](CCCNC(=N)N)C(=O)N[C@@H](CCCCN)C(=O)N[C@@H](CCCNC(=N)N)C(=O)N[C@@H](Cc1ccccc1)C(=O)N[C@@H](Cc1ccccc1)C(=O)N[C@@H](Cc1ccccc1)C(=O)N[C@@H](CCCNC(=N)N)C(=O)N[C@@H](CCCCN)C(=O)N[C@@H](Cc1ccccc1)C(=O)N[C@@H](CCCNC(=N)N)C(=O)N[C@@H](CCCCN)C(=O)N[C@@H](CCCNC(=N)N)C(=O)N[C@@H](Cc1ccccc1)C(=O)N[C@@H](Cc1ccccc1)C(N)=O [MU 7] (Ac-FRKFRKRFFFRKFRKRFF-NH2) | > 30 | 
9 | CC(=O)N[C@@H](Cc1c[nH]c2ccccc12)C(=O)N[C@@H](CCCNC(=N)N)C(=O)N[C@@H](CCCCN)C(=O)N[C@@H](Cc1c[nH]c2ccccc12)C(=O)N[C@@H](CCCNC(=N)N)C(=O)N[C@@H](CCCCN)C(=O)N[C@@H](CCCNC(=N)N)C(=O)N[C@@H](Cc1c[nH]c2ccccc12)C(=O)N[C@@H](Cc1c[nH]c2ccccc12)C(=O)N[C@@H](CCCNC(=N)N)C(=O)N[C@@H](CCCCN)C(=O)N[C@@H](Cc1c[nH]c2ccccc12)C(=O)N[C@@H](CCCNC(=N)N)C(=O)N[C@@H](CCCCN)C(=O)N[C@@H](CCCNC(=N)N)C(=O)N[C@@H](Cc1c[nH]c2ccccc12)C(=O)N[C@@H](Cc1c[nH]c2ccccc12)C(N)=O [MU 58] (Ac-WRKWRKRWWRKWRKRWW-NH2) | 4.25 | 
10 | CC(=O)N[C@@H](CC(C)C)C(=O)N[C@@H](CCCNC(=N)N)C(=O)N[C@@H](CCCCN)C(=O)N[C@@H](CCCNC(=N)N)C(=O)N[C@@H](CC(C)C)C(=O)N[C@@H](CC(C)C)C(=O)N[C@@H](CC(C)C)C(=O)N[C@@H](CCCNC(=N)N)C(=O)N[C@@H](CCCCN)C(=O)N[C@@H](CC(C)C)C(=O)N[C@@H](CCCNC(=N)N)C(=O)N[C@@H](CCCCN)C(=O)N[C@@H](CCCNC(=N)N)C(=O)N[C@@H](CC(C)C)C(=O)N[C@@H](CC(C)C)C(N)=O [GIN 2] (Ac-LRKRLLLRKLRKRLL-NH2) | > 40 | no, or poor, efficacy
11 | CC(=O)N[C@@H](Cc1c[nH]c2ccccc12)C(=O)N[C@@H](CCCNC(=N)N)C(=O)N[C@@H](CCCCN)C(=O)N[C@@H](Cc1c[nH]c2ccccc12)C(=O)N[C@@H](CCCNC(=N)N)C(=O)N[C@@H](CCCCN)C(=O)N[C@@H](CCCNC(=N)N)C(=O)N[C@@H](Cc1c[nH]c2ccccc12)C(=O)N[C@@H](Cc1ccccc1)C(=O)N[C@@H](Cc1ccccc1)C(=O)N[C@@H](CCCNC(=N)N)C(=O)N[C@@H](CCCCN)C(=O)N[C@@H](Cc1c[nH]c2ccccc12)C(=O)N[C@@H](CCCNC(=N)N)C(=O)N[C@@H](CCCCN)C(=O)N[C@@H](CCCNC(=N)N)C(=O)N[C@@H](Cc1ccccc1)C(=O)N[C@@H](Cc1ccccc1)C(N)=O [MU 61] (Ac-WRKWRKRWFFRKWRKRFF-NH2) | 4.75 | 
12 | CC(=O)N[C@@H](CC(C)C)C(=O)N[C@@H](CCCNC(=N)N)C(=O)N[C@@H](CCCCN)C(=O)N[C@@H](CC(C)C)C(=O)N[C@@H](CCCNC(=N)N)C(=O)N[C@@H](CCCCN)C(=O)N[C@@H](CC(C)C)C(=O)N[C@@H](CCCNC(=N)N)C(=O)N[C@@H](CCCCN)C(=O)N[C@@H](CC(C)C)C(=O)N[C@@H](CCCNC(=N)N)C(=O)N[C@@H](CCCCN)C(=O)N[C@@H](CC(C)C)C(=O)N[C@@H](CCCNC(=N)N)C(=O)N[C@@H](CCCCN)C(=O)N[C@@H](CC(C)C)C(=O)N[C@@H](CCCNC(=N)N)C(=O)N[C@@H](CCCCN)C(N)=O [GIN 9] (Ac-LRKLRKLRKLRKLRKLRK-NH2) | 15.5 | had efficacy
